The test system of this test is Swiss mice, Sarcoma 180 sc, mean tumor weight T/C. In words: NCI In Vivo Anticancer Drug Screen. Data for tumor model Sarcoma 180 (subcutaneous) in Swiss mice. As to conditions: endpoint: mean tumor weight, higher = larger tumour. The essentials: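 Readout is the ratio of treated-group measurement to vehicle-control measurement (T/C), based on survival or tumor size in mice carrying transplanted tumors.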

“And” between values parts separate entries of the source, which are not always exact repeats. Identical values can stand only once.

As for `O=c1[nH]c2cc(Cl)c(Cl)cc2o1`, the T/C (dose: 19.0 mg/kg/injection, schedule: Q01DX007 (ip), vehicle: carboxymethylcellulose (CMC)) was 83 % of control; the T/C (dose: 37.5 mg/kg/injection, schedule: Q01DX007 (ip), vehicle: carboxymethylcellulose (CMC)) is 90 % of control; the T/C (dose: 75.0 mg/kg/injection, schedule: Q01DX007 (ip), vehicle: carboxymethylcellulose (CMC)) is 94 % of control; the T/C (dose: 150.0 mg/kg/injection, schedule: Q01DX007 (ip), vehicle: carboxymethylcellulose (CMC)) was 81 % of control.

Take `CN(C)C1=C(Cl)C(=O)C(=O)c2cccnc21`: the T/C runs as follows: (dose: 6.25 mg/kg/injection, schedule: Q01DX007 (ip), vehicle: water) 89 % of control; (dose: 12.5 mg/kg/injection, schedule: Q01DX007 (ip), vehicle: water) 81 % of control.

Turning to `O=C1C=CC(=O)N1c1ccc2c(c1)C(Br)c1ccccc1-2` (centres undefined), the T/C is 97 % of control (dose: 3.0 mg/kg/injection, schedule: Q#A X014 (ip), vehicle: carboxymethylcellulose (CMC)); 73 % of control (dose: 5.5 mg/kg/injection, schedule: Q#A X014 (ip), vehicle: carboxymethylcellulose (CMC)); 109 % of control (dose: 11.0 mg/kg/injection, schedule: Q#A X014 (ip), vehicle: carboxymethylcellulose (CMC)); 45 % of control and 52 % of control (dose: 11.0 mg/kg/injection, schedule: Q#A X014 (ip), vehicle: methylcellulose (MC)); 102 % of control (dose: 16.5 mg/kg/injection, schedule: Q#A X014 (ip), vehicle: carboxymethylcellulose (CMC)); 32 % of control and 50 % of control (dose: 16.5 mg/kg/injection, schedule: Q#A X014 (ip), vehicle: methylcellulose (MC)). Further, the T/C was 99 % of control (dose: 25.0 mg/kg/injection, schedule: Q#A X014 (ip), vehicle: carboxymethylcellulose (CMC)); 40 % of control (dose: 25.0 mg/kg/injection, schedule: Q#A X014 (ip), vehicle: methylcellulose (MC)); 89 % of control (dose: 37.5 mg/kg/injection, schedule: Q#A X014 (ip), vehicle: carboxymethylcellulose (CMC)).

As to `COc1cccc2c1C(=O)c1c(O)c3c(c(O)c1C2=O)C[C@@](O)(C(C)=O)C[C@@H]3OC1CC(N)C(O)C(C)O1` (some centres undefined), the T/C (dose: 1.0 mg/kg/injection, schedule: Q01DX007 (sc), vehicle: steriod suspending solution) was 86 % of control; the T/C (dose: 5.0 mg/kg/injection, schedule: Q01DX007 (sc), vehicle: steriod suspending solution) is 54 % of control and 42 % of control.

Take `CN=C(N)/N=C(\N)Nc1cc2ccccc2c2ccccc12`: the T/C was 89 % of control (dose: 1.0 mg/kg/injection, schedule: Q01DX007 (ip), vehicle: acid diluted with saline); 93 % of control (dose: 2.0 mg/kg/injection, schedule: Q01DX007 (ip), vehicle: acid diluted with saline); 92 % of control (dose: 4.0 mg/kg/injection, schedule: Q01DX007 (ip), vehicle: acid diluted with saline).

On to `COCCOC1=C(N2CC2)C(=O)C(OCCOC)=C(N2CC2)C1=O`, for which the T/C by setting is: (dose: 0.89 mg/kg/injection, schedule: Q01DX007 (sc), vehicle: saline) 61 % of control; (dose: 1.3 mg/kg/injection, schedule: Q01DX007 (sc), vehicle: saline) 72 % of control; (dose: 1.6 mg/kg/injection, schedule: Q01DX007 (oral), vehicle: saline) 95 % of control; (dose: 2.0 mg/kg/injection, schedule: Q01DX001 (ip), vehicle: saline) 97 % of control; (dose: 2.0 mg/kg/injection, schedule: Q01DX006 (iv), vehicle: saline) 71 % of control; (dose: 2.0 mg/kg/injection, schedule: Q01DX007 (im), vehicle: saline) 59 % of control. Moreover, the T/C is, setting by setting: (dose: 2.0 mg/kg/injection, schedule: Q01DX007 (ip), vehicle: saline) 56 % of control; (dose: 2.0 mg/kg/injection, schedule: Q01DX007 (sc), vehicle: saline) 45 % of control; (dose: 2.0 mg/kg/injection, schedule: Q03DX003 (ip), vehicle: saline) 64 % of control; (dose: 2.4 mg/kg/injection, schedule: Q01DX007 (oral), vehicle: saline) 75 % of control; (dose: 3.0 mg/kg/injection, schedule: Q01DX001 (ip), vehicle: saline) 48 % of control; (dose: 3.0 mg/kg/injection, schedule: Q01DX006 (iv), vehicle: saline) 48 % of control. Moreover, the T/C was 59 % of control (dose: 3.0 mg/kg/injection, schedule: Q01DX007 (im), vehicle: saline); 37 % of control (dose: 3.0 mg/kg/injection, schedule: Q01DX007 (ip), vehicle: saline); 30 % of control (dose: 3.0 mg/kg/injection, schedule: Q01DX007 (sc), vehicle: saline); 50 % of control (dose: 3.0 mg/kg/injection, schedule: Q03DX003 (ip), vehicle: saline); 73 % of control (dose: 3.6 mg/kg/injection, schedule: Q01DX007 (oral), vehicle: saline); 21 % of control (dose: 4.0 mg/kg/injection, schedule: Q01DX006 (iv), vehicle: saline). Besides, the T/C (dose: 4.0 mg/kg/injection, schedule: Q03DX003 (ip), vehicle: saline) was 51 % of control; the T/C (dose: 5.3 mg/kg/injection, schedule: Q01DX007 (oral), vehicle: saline) is 38 % of control; the T/C (dose: 6.0 mg/kg/injection, schedule: Q01DX001 (ip), vehicle: saline) was 83 % of control; the T/C (dose: 6.0 mg/kg/injection, schedule: Q03DX003 (ip), vehicle: saline) is 33 % of control; the T/C (dose: 8.0 mg/kg/injection, schedule: Q01DX007 (oral), vehicle: saline) was 34 % of control; the T/C (dose: 12.0 mg/kg/injection, schedule: Q01DX001 (ip), vehicle: saline) is 32 % of control.

For `O=CCC(O)C(O)C(O)CO` (centres undefined), the T/C (dose: 125.0 mg/kg/injection, schedule: Q01DX007 (ip), vehicle: carboxymethylcellulose (CMC)) was 86 % of control; the T/C (dose: 250.0 mg/kg/injection, schedule: Q01DX007 (ip), vehicle: carboxymethylcellulose (CMC)) is 75 % of control; the T/C (dose: 500.0 mg/kg/injection, schedule: Q01DX007 (ip), vehicle: carboxymethylcellulose (CMC)) was 76 % of control; the T/C (dose: 1000.0 mg/kg/injection, schedule: Q01DX007 (ip), vehicle: carboxymethylcellulose (CMC)) was 67 % of control.

On to `O=P(N1CCCCCC1)(N1CC1)N1CC1`, for which the T/C is, setting by setting: (dose: 1.0 mg/kg/injection, schedule: Q#A X014 (ip), vehicle: methylcellulose (MC)) 91 % of control; (dose: 1.0 mg/kg/injection, schedule: Q#A X014 (ip), vehicle: saline) 120 % of control; (dose: 1.5 mg/kg/injection, schedule: Q#A X014 (ip), vehicle: methylcellulose (MC)) 86 % of control; (dose: 1.5 mg/kg/injection, schedule: Q#A X014 (ip), vehicle: saline) 103 % of control; (dose: 2.0 mg/kg/injection, schedule: Q#A X014 (ip), vehicle: methylcellulose (MC)) 65 % of control; (dose: 2.0 mg/kg/injection, schedule: Q#A X014 (ip), vehicle: saline) 88 % of control. Besides, the T/C was 61 % of control (dose: 3.0 mg/kg/injection, schedule: Q#A X014 (ip), vehicle: methylcellulose (MC)) and 70 % of control (dose: 3.0 mg/kg/injection, schedule: Q#A X014 (ip), vehicle: saline).

In the case of `CC1CCC2(NC1)OC1CC3C4CC=C5CC(OC6OC(CO)C(OC7OC(C)C(O)C(O)C7O)C(O)C6OC6OC(C)C(O)C(O)C6O)CCC5(C)C4CCC3(C)C1C2C` (centres undefined), the T/C is, setting by setting: (dose: 150.0 mg/kg/injection, schedule: Q01DX007 (sc), vehicle: steriod suspending solution) 115 % of control; (dose: 300.0 mg/kg/injection, schedule: Q01DX007 (sc), vehicle: steriod suspending solution) 100 % of control; (dose: 500.0 mg/kg/injection, schedule: Q01DX007 (sc), vehicle: steriod suspending solution) 79 % of control.

As to `O=[n+]1c2c(n([O-])c3ccccc31)-c1cccc3cccc-2c13`, the T/C (dose: 41.0 mg/kg/injection, schedule: Q01DX007 (ip), vehicle: carboxymethylcellulose (CMC)) is 69 % of control; the T/C (dose: 210.0 mg/kg/injection, schedule: Q01DX007 (ip), vehicle: carboxymethylcellulose (CMC)) is 10 % of control; the T/C (dose: 315.0 mg/kg/injection, schedule: Q01DX007 (ip), vehicle: carboxymethylcellulose (CMC)) was 25 % of control.

Take `O=c1[nH]c(=O)c2n[nH]nc2[nH]1`: the T/C is 122 % of control (dose: 0.25 mg/kg/injection, schedule: Q#A X014 (ip), vehicle: carboxymethylcellulose (CMC)); 102 % of control (dose: 0.5 mg/kg/injection, schedule: Q#A X014 (ip), vehicle: carboxymethylcellulose (CMC)); 114 % of control (dose: 2.0 mg/kg/injection, schedule: Q#A X014 (ip), vehicle: carboxymethylcellulose (CMC)); 68 % of control (dose: 86.28 mg/kg/injection, schedule: Q01DX007 (ip), vehicle: carboxymethylcellulose (CMC)); 49 % of control (dose: 172.57 mg/kg/injection, schedule: Q01DX007 (ip), vehicle: carboxymethylcellulose (CMC)); 102 % of control (dose: 345.15 mg/kg/injection, schedule: Q01DX007 (ip), vehicle: carboxymethylcellulose (CMC)). For the same molecule, the T/C (dose: 690.3 mg/kg/injection, schedule: Q01DX007 (ip), vehicle: carboxymethylcellulose (CMC)) was 51 % of control.

For orientation: T/C means the result in the treated group divided by that in the control group, in per cent.

(Values after PubChem BioAssay AID342 (DTP/NCI, 2004).)
